# Assay results reported in patent US20070203079A1, “Methods of using small molecule compounds for neuroprotection” (priority 2005, published 2007).
# Where a name gives a salt, the structure may show the parent alone. Marks after values point to notes of the source that are not given here.
# What was measured:
# Assay type in all cases: in vivo, C. elegans
# [1] = system: transgenic worm line Pdat-1::CAT-2; assay: Neurodegeneration by overexpression of cat-2 (tyrosine hydroxylase)
# Description: Overexpression of cat-2, the worm homologue for tyrosine hydroxylase, results in increased intraneuronal dopamine production and a characteristic loss of dopaminergic neurons in 75% of transgenic worms as compared to wild type (Cao et al., J Neurosci, 25(1):3801-3812). Co-expression of worm or human torsin proteins reduces the loss of dopaminergic neurons to a slight degree although neuronal degeneration is still present. The purpose of these experiments was to determine the effect of small molecule compounds in the Prestwick library in another different C. elegans model of neurodegeneration.
# Worms were cultured using the same methods described above. A transgenic worm line expressing Pdat-1::CAT-2 expresses a phenotype that results in visible neurodegeneration at all developmental stages in an integrated line, in which only approximately 55% of 7 day old animals maintained all four CEP neurons. […] Compound 166 is an example of one such compound.
# To further examine the neuroprotective effect of meclofenamic acid and lidocaine, we used a transgenic line (Pdat-1::CAT-2) we previously described (Cao et al., J Neurosci, 2005, 25(1): 3801-3812). Overexpression of cat-2, the C. elegans homolog of the tyrosine hydroxylase (“TH”) gene, causes a high level of DA production and as a result, DA neuron degeneration is observed (Cao et al., J Neurosci, 2005, 25(1): 3801-3812). […] We also tested whether meclofenamic acid was able to suppress CAT-2-induced neurodegeneration. […] Therefore, meclofenamic acid can protect DA neurons from degeneration produced by overexpression of the dopamine precursor, tyrosine hydroxylase.
# GFP::DAT-1 = assay: Pdat-1::GFP::DAT-1 expression within DA neurons; conditions: for Neurons with cell body and dendritic/axonal GFP: water control 70%; for Neurons with cell body and dendritic/axonal GFP / Mean pixel intensity of cell bodies ± SEM (fluorescence intensity): HCl; for Mean pixel intensity of cell bodies ± SEM (fluorescence intensity): water control 1970 ± 80, compounds at 1.85, 1.49, 1.86 mM
# [2] = system: transgenic worms containing the transgene Pdat-1::GFP without any torsinA expression; assay: 6-OHDA dopaminergic neurodegeneration in worms without torsinA; conditions: no torsinA expression
# [3] = system: protein misfolding and aggregation in transgenic worms; assay: Preventative assay of protein aggregation (drug from hatching to L2 stage); conditions: exposure from hatching to L2 stage; scored at L3 and young adult
# Protocol: (§1) To see the preventative effects of the candidate drug compounds on protein misfolding and aggregation, five gravid adult worms were placed onto each drug plate and grown at 20° C. for approximately 3 days. 35-40 Fl worms at L2 stage were picked and transferred to a control plate with the same concentration of control solvent compared to the drug plate. Thirty worms at L3 stage were counted for aggregate number 8 hours later. Thirty young adults were analyzed 32 hours later.
# (§2) To calculate the scaled effectiveness of special regimen of drugs on worms based on standardized decrease in protein aggregates. The following formula was used: (A−B)/(A−C)×100%, where
# (§3) A=number of aggregates for worms growing on solvent control plates
# (§4) B=number of aggregates for worms grown on the specific drug plate for the entire life of the worms
# C=number of aggregates for worms that received pre-L2 exposure and were then removed to solvent control plates
# (§5) If the regimen has no effect, the value would equal 0%. Conversely, if the regimen was as effective as raising the worms on the drug for their entire life, the value would equal 100%.
# [4] = system: worms expressing Punc-54::Q82::GFP+Punc-54::torsinA (ΔE) with a mutant torsinA only; assay: Protein aggregate assay in worms with mutant torsinA only
# Protocol: (§6) C elegans nematodes were grown at 20° C. on NGM plates as described by Brenner (Brenner, Genetics, 1974, 77: 71-94). Several transgenic C. elegans lines were used for primary screens of the Prestwick small molecule library. A transgenic worm line expressing Punc-54::Q82-GFP; with both wild type (“wt”) (Punc=54: :torsinA) or mutant (Punc-54::torsinA(ΔE)). Torsin-A expresses a phenotype that results in visible protein aggregation under fluorescent microscope. Transgenic worms were plated on drug plates and progeny were studied for a return to soluble protein. […]
# (§7) The screening assays used to identify the compounds use protein aggregation readouts to determine the specificities of molecular action. […]
# (§8) The methods for the aggregate analysis assay are described in Caldwell et al. (Hum Mol Genetics, 2003, 12(3): 307-319). […] MetaMorph Software (Universal Imaging Inc.) was used for pseudocoloration of images, image overlay, and aggregate size quantitation. For each worm line analyzed, average aggregate size was determined by capturing images of all aggregates in the posterior region of 30 L3-staged animals (for Q82::GFP aggregates) or all aggregates in 30 adult animals/day (for Q19::GFP analyses) at 1000× magnification. […]
# [5] = system: Pdat-1::GFP+Pdat-1::α-synuclein+Pdat-1:: torsinA (ΔE) worms; assay: α-synuclein toxicity assay, mutant torsinA
# Description: (§9) We have previously shown that torsinA can prevent dopamine (“DA”) neuron degeneration resulting from overexpression of α-synuclein in the DA neurons of C. elegans, while torsinA (“ΔE”) has a reduced neuroprotection (Cao et al., J Neurosci, 2005, 25(1): 3801-3812). Specifically, only 26.1±5.3% of the worms expressing Pdat-1::GFP+Pdat-1::α-synuclein maintained all 4 wildtype CEP DA neurons as 4 day adults while the percentages of the worms expressing Pdat-1::GFP+Pdat-1::α-synuclein+Pdat-1::torsinA and Pdat-1::GFP+Pdat-1::α-synuclein+Pdat-1:: torsinA (ΔE) are 57.3±1.6% and 42.2±7.3%, respectively (Cao et al., J Neurosci, 2005, 25(1): 3801-3812) (FIG. 8).
# (§10) All molecules are coded by Prestwick Library number. TorsinA-dependent compounds identified from the aggregation assay have torsinA-specific effects and, therefore, are likely to function in the same manner in the α-synuclein toxicity assay. All three α-synuclein transgenic lines were exposed to the five torsinA-dependent compounds to determine their torsinA-specificity (FIG. 9). As expected, none of these compounds had any effect in Pdat-1::GFP+Pdat-1::α-synuclein when torsinA expression is absent.
# [6] = system: protein misfolding and aggregation in transgenic worms; assay: Corrective assay of protein aggregation (drug from L2 stage onward); conditions: drug exposure from L2 stage onward; scored at L3 and young adult
# Protocol: as §1, with “corrective effect” for “preventative effects”, “a solvent control” for “each drug”, “a” for “a control plate with the same concentration of control solvent compared to the”
# as §2, §3, §4
# C=number of aggregates for worms that received exposure from L2 stage (until adulthood)
# as §5
# [7] = system: Pdat-1::GFP+Pdat-1::α-synuclein+Pdat-1::torsinA worms; assay: α-synuclein toxicity assay, wt torsinA
# Description: as §9, §10
# [8] = system: worms containing Pdat-1::GFP+Pdat-1::torsinA+Pdat-1::torsinA (ΔE) after 6-OHDA exposure; assay: 6-OHDA dopaminergic neurodegeneration in worms with wt and mutant torsinA; conditions: wt and mutant torsinA co-expressed; 6-OHDA insult
# Description: Previous studies have established that the “CEP” and “ADE” mechanosensory neurons in C. elegans undergo readily discernable neuronal degeneration after treatment with the dopamine-selective neurotoxin 6-OHDA (Nass et al, 2002). The toxicity of 6-OHDA is mediated through the formation of reactive oxygen species by the generation of hydrogen peroxide and […] via a nonenzymatic auto-oxidation process (Kumar et al., 1995; Foley and Riederer, 2000). […] This degeneration can be monitored in living animals by coexpressing with green fluorescent protein and categorized into three temporally and morphologically distinct stages, including neuronal process blebbing, cell body rounding with process loss, and cell body loss. These characteristic changes reproducibly appear in this order within a few hours, recapitulating observations in MPTP-treated monkeys and in 6-OHDA-treated rats, in which damage to striatal terminals leads to retrograde changes and precedes that of SNpc cell bodies (Berger et al., 1991; Herkenham et al., 1991). The actions of torsin protein in 6-OHDA-mediated neurodegeneration has recently been shown (Cao et al., J Neurosci, 25(1):3801-3812). Animals were treated with various concentrations of 6-OHDA and neurodegeneration was followed over time, as worms develop and age, by co-expression of a dopamine GFP marker in these transparent animals.
# C. elegans nematodes were grown at 25° C. on NGM plates as described by Brenner (Brenner, Genetics, 1974, 77: 71-94). Two transgenic C. elegans lines were used for primary screens of the Prestwick small molecule library. A transgenic worm line expressing Pdat-1::GFP; with both wild type (Pdat-1::torsinA) or mutant (Pdat-1:::torsinA(ΔE)). Torsin-A expresses a phenotype that results in visible neurodegeneration after treatment with 6-OHDA. Transgenic worms were plated on drug plates and progeny were studied for morphological changes in the 8 dopaminergic neurons present in C. elegans.
# Drugs were administered to C. elegans according to a standard procedure (Rand and Johnson, Methods Cell Biol, 1995, 48: 187-204) by mixing the solubilized drug with the agar medium on which the worms are grown. This mode of administration allows the continuous exposure of worms to the drug.
# Each drug was first dissolved in an appropriate solvent, followed by adding the drug solution into pre-autoclaved media, with the volume of drug solution already taken into account. All drugs were tested at 0.5 mg/ml initial concentration, a few of which were toxic to worms and then tested at 0.1 mg/ml or 0.025 mg/ml concentration. Each plate was seeded with 100 μl concentrated E. coli OP50 bacteria
# Age-synchronized worms were obtained by treating gravid adults with 2% sodium hypochlorite and 0.5M NaOH to isolate embryos (Lewis Fleming, 1995). These embryos were grown for 30 h at 25° C. At the L3 stage, larvae were incubated with 10 mM (50 mM) 6-OHDA and 2 mM (or 10 mM) ascorbic acid for 1 h with gentle agitation every 10 minutes. (Nass et al., 2002). The worms were then washed and spread onto NGM plates seeded with bacteria (OP50) and scored at time points ranging from 2 to 72 h after 6-OHDA exposure.
# Immediately after 6-OHDA treatment, worms containing the transgenes were selected under a fluorescence dissecting microscope, based on the presence of GFP, and transferred to a fresh NGM plate seeded with OP50. For each time point, 30-40 worms were applied to a 2% agarose pad and immobilized with 3 mM levamisole. Worms were examined under a Nikon Eclipse E800 epifluorescence microscope equipped with an Endow GFP filter cube (Chroma Technology, Rockingham, Vt.). For ease of analysis, only the four CEP DA neurons in the head of the worm were scored. […]
# [9] = system: transgenic worms containing the transgene Punc-54::Q82::GFP without any torsinA expression; assay: Protein aggregate assay in worms without torsinA expression
# Protocol: as §6, §7, §8
# [10] = Pdat-1::GFP::DAT-1, listed as Lidocaine hydrochloride
smiles,measurement,setting,value
"CCN(CC)CC(=O)Nc1c(C)cccc1C [Compound 50, lidocaine HCl]",neuroprotective effect against CAT-2-induced neurodegeneration,[1]; Pdat-1::CAT-2,−7.9%
same,Worms with no GFP,"GFP::DAT-1; Pdat-1::GFP::DAT-1, water control 0%",0%
same,Neurons with cell body GFP only,"GFP::DAT-1; Pdat-1::GFP::DAT-1, water control 30%",70%^e
same,Neurons with cell body and dendritic/axonal GFP,GFP::DAT-1; Pdat-1::GFP::DAT-1,30%
same,Neurons with cell body and dendritic/axonal GFP,GFP::DAT-1; [10],30%^d
same,Mean pixel intensity of cell bodies ± SEM (fluorescence intensity),GFP::DAT-1; Pdat-1::GFP::DAT-1,1612 A.U.
same,Mean pixel intensity of cell bodies ± SEM (fluorescence intensity),GFP::DAT-1; [10],1612 ± 78 A.U.
same,effect on GFP::DAT-1 level,GFP::DAT-1; result in words,can down-regulate the level of DAT-1 protein directly
same,reduction of 6-OHDA-mediated neurodegeneration,[2],reduced the 6-OHDA-mediated neurodegeneration
"CN(C)C(=O)C(CCN1CCC(O)(c2ccc(Cl)cc2)CC1)(c1ccccc1)c1ccccc1 [Compound 144, Loperamide HCl]",preventative effect on protein aggregation,[3],seem to be beneficial
same,reduction of aggregation,[4],reduced aggregation
same,enhanced DA neuron survival,[5],39.5±1.4%
same,corrective effect on protein aggregation,[6],seem to be beneficial
same,enhanced wild type DA neuron survival,[7],failed to show any significant neuroprotection
"NCc1ccc(S(N)(=O)=O)cc1 [Compound 166, Mafenide]",neuroprotective action on dopaminergic neurons overexpressing cat-2,"[1]; Pdat-1::CAT-2, result in words",demonstrated a reduction in the standardized decrease in dopaminergic neurodegeneration
same,neuroprotection of dopaminergic neurons against 6-OHDA,[8],little to no neuroprotection
same,reduction of protein aggregates,[9],reduced the presence of protein aggregates
